Test results reported in PubChem BioAssay (NCI).
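Five concentrations, 48 hours, 96-well plates. The concentration for 50% growth inhibition is given as GI50. Definition used: TGI = concentration required for complete inhibition of growth.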

Assays:
Test in all cases: NCI-60 cell line screen, 48 h
[1] = system: HOP-92 NSCLC
[2] = system: SW-620 colon
[3] = system: OVCAR-5 ovarian
[4] = system: SN12C renal
[5] = system: MCF7 breast
[6] = system: NCI-H522 lung
[7] = system: SF-539 CNS
[8] = system: BT-549 breast
[9] = system: EKVX NSCLC
[10] = system: K-562 leukemia

Row | SMILES | GI50 [1] [µM] | TGI [1] [µM] | GI50 [2] [µM] | TGI [2] [µM] | GI50 [3] [µM] | TGI [3] [µM] | GI50 [4] [µM] | TGI [4] [µM] | GI50 [5] [µM] | TGI [5] [µM] | GI50 [6] [µM] | TGI [6] [µM] | GI50 [7] [µM] | TGI [7] [µM] | GI50 [8] [µM] | TGI [8] [µM] | GI50 [9] [µM] | TGI [9] [µM] | GI50 [10] [µM] | TGI [10] [µM]
1 | NS(=O)(=O)c1ccc(N(/C=C/C(=O)C(F)(F)F)CC(=O)c2ccc(F)cc2)cc1 | 21.3 | 60.9 | 21.5 | 46.6 | 28.8 | 74.4 | 19.4 | 45.3 | > 100 | > 100 | 26.1 | 51.5 | 20.9 | 43 | 19.3 | 43.3 | 29.7 | 87.2 | 14 | 54.6
2 | CC1CCCCCC(=O)c2c(O)cc(O)cc2CC(=O)O1 (stereo not drawn) |  | > 100 |  | > 100 |  | > 100 |  | > 100 |  | > 100 |  | > 100 |  | > 100 |  | > 100 |  | > 100 |  | > 100
3 | O=[N+]([O-])c1ccc(C2=NCCO2)cc1 | > 100 | > 100 | > 100 | > 100 | > 100 | > 100 | > 100 | > 100 | > 100 | > 100 | > 100 | > 100 | > 100 | > 100 | > 100 | > 100 | > 100 | > 100 | > 100 | > 100
4 | CCNC1=C(NC(=O)c2ccc(F)cc2)C(=O)c2ccccc2C1=O |  | > 100 |  | > 100 |  | > 100 |  | > 100 |  | > 100 |  | > 100 |  | > 100 |  | > 100 |  | > 100 |  | > 100
5 | CN1CCN(Cc2ccc(NC(=O)c3cncc(C#Cc4cnc(N)c5ncccc45)c3)cc2C(F)(F)F)CC1 | 0.209 | 1.24 | 0.247 | 1.36 | 0.372 | 1.78 | 0.307 | 1.5 | 0.723 | 2.92 | 0.396 | 8.49 | 0.306 | 1.47 | 5.1 | 23.6 | 0.589 | 15.5 |  | 1.92
6 | O=S(=O)(NCCCNc1cc(-c2cn(-c3ccccc3)nc2-c2cccc(O)c2)ccn1)c1ccc(C(F)(F)F)cc1 | 1.56 | 3.9 | 1.78 | 3.93 | 1.92 | 5.16 | 1.81 | 3.67 | 2.11 | 6.58 | 2.28 | 4.83 | 1.83 | 3.77 | 1.39 | 2.8 | 2.45 | 10.7 | 0.924 | 4.59
7 | C[C@@H]1CN2[C@H]3[C@@H]1CC[C@]31CCC(=O)O[C@]1(C)[C@H]1CC[C@H]3CCC=C3[C@@H]12 | > 30 | > 30 | > 30 | > 30 | > 30 | > 30 | > 30 | > 30 | > 30 | > 30 | > 30 | > 30 | > 30 | > 30 | > 30 | > 30 | > 30 | > 30 | > 30 | > 30
8 | CC1=C(CCCOC(=O)[C@H](N)CC(C)C)C2=C(C)C3(CC3)[C@@](C)(O)C(=O)C2=C1 | 0.759 | 3.33 | 19.6 | > 84 | 1.94 | 11.8 | 2.6 | > 100 | 2.73 | > 87.1 | 2.69 | 11.1 | 1.61 | 4.25 | 1.31 | 4.48 | 2.77 | 8.66 | 34.3 | > 100
9 | Cc1c(Cl)cccc1C(=O)Nc1nc2c(s1)CN(C(=O)Nc1cccc(C(F)(F)F)c1)CC2 | 0.18 | 15.6 | 0.175 | > 50 | 0.603 | > 50 | 0.334 | > 50 | 0.145 | > 50 | 0.109 |  | 0.155 | 0.885 | 0.547 | > 50 | 0.346 | > 50 | 0.131 | > 50
10 | CCN(Cc1ccc(OC)cc1)c1ccc(CO)c(Cl)c1 | 2.17 | 20.7 | 1.04 | > 100 | 0.162 | 0.636 | 14.5 | 39.3 | 0.163 | 15.7 | 16.6 | 46.7 | 19.9 | 46.3 | 12.7 | 37.4 | 20.5 | > 83.3 | 2.33 | > 100
